Measured values published in patent US9822117B2, “Pyridoindolobenz[b,d]azepine derivatives and uses thereof” (Daya Drug Discoveries, Inc., priority 2013, dated 2017).

How the values were obtained:
Sigma σ2 receptor = Sigma σ2 receptor (Homo sapiens, UniProt Q5BJF2); test: Receptor binding, σ2
[1] = tested on: mechano-allodynia (paw withdrawal threshold); test: Sciatic nerve chronic constriction injury (CCI) model of neuropathic pain; assay type: in vivo, mice
Method: DDD-028 was evaluated in chronic constriction injury (CCI) model of neuropathic pain in mice as described by Bennett et al., which is incorporated herein in its entirety. Two male CDI mice (weighing 25-30 g at the time of surgery) were used in this study. The hydrochloride salt of DDD-028 was dissolved in distilled water at 0.15 mg/mL and was administered to the mice to the final dose of 1.0 mg/kg (3.5 gmol/kg) for oral administration (via gavage) or 0.3 mg/kg (1.2 gmol/kg) for intrathecal administration (injection) at peak mechano-allodynia. Baseline PWT measurements (pre-surgery) of the left-hind paw of each animal were taken prior to sciatic nerve ligation. The mice were then anesthetized with 3% isoflurane/100% O2 inhalation, and maintained on 2% isoflurane/100% O2 for the duration of surgery. The left thigh was shaved, scrubbed with Nolvasan, and a small incision (1-1.5 cm in length) was made in the middle of the lateral aspect of the left thigh to expose the sciatic nerve. The nerve was loosely ligated around the entire circumference of the nerve at three distinct sites (spaced 1 mm apart) using silk sutures. The surgical site was closed with a single muscle suture and a skin clip. Peak mechano-allodynia generally develops 7 […]. After 7 days post-surgery, Paw Withdrawal Threshold (PWT, g) measurements were taken for each animal to determine the extent of mechanical allodynia. PWT's were measured at 15 min, 30 min, 60 min, 120 min, and 180 min following administration of the drugs or vehicle. […] DDD-028 had no effect on PWT in contralateral paws.

[2] = tested on: mechanical allodynia (paw withdrawal threshold); test: Spinal nerve ligation (SNL) model of neuropathic pain; assay type: in vivo, rats
Method: DDD-028 was evaluated in spinal nerve ligation (SNL) model of neuropathic pain in rats as described by Kim et al., which is incorporated herein in its entirety. DDD-028 was prepared as a suspension (1.0 mg/mL) in 5% PEG/5% Tween-80/90% saline; and pregabalin (reference compound, positive control) was prepared as a solution in normal saline (7.9 mg/mL). Both compounds were administered to the animals via oral gavage to a final dose of 5.0 mg/kg (17.4 gmol/kg) for DDD-028; and 39.0 mg/kg (250.2 gmol/kg) for pregabalin. Control animals received the vehicle (5% PEG/5% Tween-80/90% saline). Mechanical allodynia was measured by the up and down method using calibrated von Frey filaments (Linton Instruments). Eighteen male CD rats were used in this study. The animals were divided into three groups (vehicle, DDD-028, and pregabalin) containing 6 animals in each group. Baseline PWT measurements (pre-surgery) of the left-hind paw of each animal in the group were taken prior to spinal nerve ligation. Thereafter, the rats were anesthetized using 1-3% isofluorane, and the L5 spinal nerve was isolated and ligated tightly using silk thread. Peak mechano-allodynia generally develops by day 7 following surgery. After 7 days post-surgery, PWT measurements were taken for each animal to determine the extent of mechanical allodynia. Animals were then weighed, allocated to the treatment group, and administered the test compound, DDD-028, the reference compound, pregabalin, or the vehicle. PWT's were measured at 15 min, 30 min, 60 min, 120 min, and 180 min following administration of the drugs or vehicle.

[3] = tested on: mechanical allodynia (percent weight distribution of left hind paw); test: Complete Freund's Adjuvant (CFA)-induced model of inflammatory pain; assay type: in vivo; details: rats
Method: DDD-028 was evaluated in Complete Freund's Adjuvant (CFA)-induced model of inflammatory pain in rats as described by Stein et al., which is incorporated herein in its entirety. Fifteen male CD rats were used in this study. The animals were divided into three groups (vehicle, DDD-028, and indomethacin) containing 5 animals in each group. Baseline weight distribution of each animal in the groups was measured taken prior to CFA administration. Three readings were taken for each paw in each animal. Each reading was take over 3 seconds. Animals were lifted or the paws adjusted between each reading to ensure that animals were positioned correctly on the force pads. The percent weight bearing was calculated on the left leg for each reading. The mean of the three readings were then calculated for each animal. Following baseline measurements, the rats were anesthetized using 1-3% isofluorane, and were given subplantar injection of 0.1 mL of CFA into the left hind paw. Percent weight distributions of the left hind paws of each animal in the three groups were measured at 24 hours post-administration to determine the extent of mechanical allodynia. Animals were then weighed, allocated to the treatment group, and administered the test compound, DDD-028, the reference compound, indomethacin, or the vehicle. Weight distributions were measured at 15 min, 30 min, 60 min, and 120 min following administration of the drugs or vehicle.

Sigma σ2 receptor, sequence (Q5BJF2 whole entry): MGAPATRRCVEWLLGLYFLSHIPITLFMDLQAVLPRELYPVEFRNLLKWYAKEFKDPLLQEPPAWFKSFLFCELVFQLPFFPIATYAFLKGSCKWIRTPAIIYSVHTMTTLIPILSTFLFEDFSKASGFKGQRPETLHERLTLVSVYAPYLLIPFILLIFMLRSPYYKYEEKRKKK

Compound: CN1CCc2c(c3cccc4c3n2CCc2ccccc2-4)C1 [Compound 13]
- Ki (Sigma σ2 receptor): 312 nM
- effect on PWT in contralateral paws ([1]; mice, CCI, 1.0 mg/kg oral or 0.3 mg/kg intrathecal): no effect
- time of maximal effect on mechano-allodynia ([1]; mice, CCI, hydrochloride salt, 1.0 mg/kg oral or 0.3 mg/kg intrathecal): ≤ 30 min
- adverse effects ([2]; rat, in vivo, po, 5 mg/kg): No adverse effects were evident
- time of maximal anti-nociceptive effect ([2]; rats, SNL, 5.0 mg/kg oral): about 60 minutes
- potency relative to pregabalin ([2]; rats, SNL, DDD-028 5.0 mg/kg vs pregabalin […], oral): about 5 fold
- adverse effects ([3]; oral): No adverse effects were evident
- potency relative to indomethacin ([3]; oral): about 5 fold
- time of maximal anti-nociceptive effect ([3]; oral): about 60 minutes

Compound: COc1ccc2c(c1)c(CC(=O)O)c(C)n2C(=O)c1ccc(Cl)cc1 [indomethacin, reference compound]
- adverse effects ([3]; 2 hours post-administration): mild sedation

Compound: CC(C)C[C@H](CN)CC(=O)O [pregabalin, reference compound]
- adverse effects ([1]; as printed in Example 5 (CCI), 1-3 hours post-administration): mild sedation
